Assays:
[1] = test system: caspases 3 and 9 in SH-SY5Y cells; assay: Western blotting of cleaved caspase 3 and 9; format: cell-based, human; conditions: 2000 µM, 6 h, both differentiated and undifferentiated SH-SY5Y cells
Protocol: Amiodarone 50 μM and MDMA 1000 μM were used as negative controls. After treatment, cells were washed twice with cold PBS buffer (pH 7.4) and incubated with 70 μL of cell lysis buffer (radioimmunoprecipitation assay (RIPA) buffer supplemented with complete protease inhibitor (Roche Diagnostics, Mannheim, Germany)) for 15 min on ice. Then, the cell lysates were collected into Eppendorf tubes and centrifuged at 1600 g for 20 min. […] The protein extracts (18 μg per lane) were loaded, separated by SDS/PAGE using 4–12% NuPAGE Bis-Tris gels (Invitrogen, Basel, Switzerland), and then transferred to nitrocellulose membranes by the Trans-Blot Turbo Blotting System (Bio-Rad, Cressier, Switzerland). […] Protein expression was quantified using the Fusion Pulse TS device (Vilber Lourmat, Oberschwaben, Germany).

[2] = test system: SH-SY5Y cells; parameters: method as in PMID 32295288; conditions: cited from earlier work
[3] = test system: mitochondria obtained from the hippocampus, cortex, and cerebellum of rats; conditions: cited from earlier work
[4] = test system: C2C12 cells; parameters: method as in PMID 30925718; conditions: C2C12 mouse skeletal muscle cell line; cited from earlier work
[5] = cited from earlier work

CNC(C)C(=O)c1ccc(Cl)cc1 (stereo not shown) [4-CMC, 4-chloromethcathinone]
Expression of cleaved caspase 9 [1]: increased the expression of cleaved caspase 9 | Effect on autophagy [2]: stimulates autophagy

CNC(C)C(=O)c1ccc(C)cc1 (stereo not shown) [4-MMC, 4-methylmethcathinone]
Effect on mitochondrial ROS levels and outer mitochondrial membrane [3]: increases mitochondrial ROS levels and damages the outer mitochondrial membrane

CNC(C)Cc1ccc2c(c1)OCO2 (stereo not shown) [MDMA, 3,4-methylenedioxymethamphetamine]
Electron transport chain complexes with reduced activity [4]: reduced the activity of complexes I and III

CC(N)Cc1ccccc1 (stereo not shown) [amphetamine, Amphetamine]
Plasma concentrations reached after a pharmacological dose [5]: low micromolar range

CCCC(C(=O)c1ccc2ccccc2c1)N1CCCC1 (stereo not shown) [naphyrone]
Electron transport chain complexes with reduced activity [4]: complex II

CCCC(C(=O)c1ccccc1)N1CCCC1 (stereo not drawn) [α-PVP, α-pyrrolidinopentiophenone]
Electron transport chain complexes with reduced activity [4]: complex I
